Experimental data published in BindingDB's records for doi:10.1016/j.bmcl.2005.08.072 (Merck Research Laboratories, 2005).

Target: T1, Dimer of Gag-Pol polyprotein [489-587,Q496K] (Human immunodeficiency virus 1, UniProt P12497, Q496K)
T1 construct: 489-587
Test: Protease Inhibition Assay
Settings: pH 5.5; 30 °C
Description: Assay of HIV protease inhibition was performed by peptide cleavage using the substrate Val-Ser-Gln-Asn-beta-naphthylalanine*Pro-Ile-Val. Products of the cleavage reaction were quantified by HPLC detection, and data were fit to nonlinear least squares equations for determination of steady-state Michaelis-Menten kinetics.

Compound: CC(C)(c1ncc(-c2ccc(Cl)cc2)o1)N1CCN(C[C@@H](O)C[C@@H](Cc2cc3ccncc3s2)C(=O)N[C@H]2c3ccccc3OC[C@H]2O)[C@H](C(=O)NCC(F)(F)F)C1 [(2S)-4-{2-[5-(4-chlorophenyl)-1,3-oxazol-2-yl]propan-2-yl}-1-[(2S,4S)-2-hydroxy-4-{[(3S,4S)-3-hydroxy-3,4-dihydro-2H-1-benzopyran-4-yl]carbamoyl}-4-{thieno[2,3-c]pyridin-2-ylmethyl}butyl]-N-(2,2,2-trifluoroethyl)piperazine-2-carboxamide]
- IC50: < 0.02 nM

Compound: CC(C)(c1ncc(-c2ccc(Cl)cc2)o1)N1CCN(C[C@@H](O)C[C@@H](Cc2cc3c(Cl)cncc3s2)C(=O)N[C@H]2c3ccccc3OC[C@H]2O)[C@H](C(=O)NCC(F)(F)F)C1 [(2S)-4-{2-[5-(4-chlorophenyl)-1,3-oxazol-2-yl]propan-2-yl}-1-[(2S,4S)-4-({4-chlorothieno[2,3-c]pyridin-2-yl}methyl)-2-hydroxy-4-{[(3S,4S)-3-hydroxy-3,4-dihydro-2H-1-benzopyran-4-yl]carbamoyl}butyl]-N-(2,2,2-trifluoroethyl)piperazine-2-carboxamide]
- IC50: < 0.02 nM
